Experimental data: patent US6855513B1 (priority 1999, dated 2005)

Assays:
[1] = target: T1, RhlI (Pseudomonas aeruginosa, UniProt P54291); settings: substrate of RhlI; cited from earlier work
T1 construct: host or cells: LasI minus strain of P. aeruginosa (as described for the cited study, Parsek et al. 1999)

[2] = tested on: quorum sensing signaling (Las system), QSC102 lacZ; test: Two-strain (PAO1 / QSC102) screening assay for quorum sensing inhibiting compounds; format: cell-based, Pseudomonas aeruginosa; settings: PAO1 + QSC102 on LB agar with X-gal, visual
Experimental: In this example, the screening assay used two strains of P. aeruginosa: a wild type P. aeruginosa (PAO1) and QSC102, from Example 1 (see FIG. 8). This assay will detect inhibition of all aspects of quorum sensing signaling, e.g., signal generation and signal reception.
(§1) Microtiter plates are prepared by adding 200 μL Luria Broth (“LB”) agar, containing 0.008% 5-bromo-4-chloro-3-indolyl-β-D-galactose (X-gal) to each well. Overnight cultures of PAO1 and QSC102 are subcultured in LB to a starting absorbance at 600 nm (“A600”) of 0.05 and grown at 37° C to an A600 of 1.0. PAO1 is diluted 2.5×10^5-fold in LB and 5 μL of this is applied to the surface of the LB agar in each well. Plates are then dried in a laminar flow hood for 60 minutes. A tenfold dilution of QSC102 in LB is used to inoculate each well using a replicator. Plates are then sealed and incubated at 37° C for 40 hours. Growth and color development are evaluated visually and the data is recorded with a camera.
(§2) The test compound was present in a microtiter well and overlaid with LB agar and 5-bromo-4-chloro-3-indolyl-β-D-galactose (X-gal). Both strains were spotted on the agar in each well. […] Inhibition of signaling was evaluated qualitatively by the absence or weakening of the blue color development.

[3] = tested on: P. aeruginosa PAO1 and QSC102; test: Bacterial growth in the PAO1 / QSC102 screening assay; format: cell-based, Pseudomonas aeruginosa; settings: in the presence of test compound
Experimental: as §1, §2

T1 sequence (P54291 whole entry): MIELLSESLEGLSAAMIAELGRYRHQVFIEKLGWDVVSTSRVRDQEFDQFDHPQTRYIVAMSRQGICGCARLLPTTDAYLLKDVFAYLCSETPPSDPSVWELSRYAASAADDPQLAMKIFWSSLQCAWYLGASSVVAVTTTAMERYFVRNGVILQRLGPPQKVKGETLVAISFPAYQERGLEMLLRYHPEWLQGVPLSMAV

| Compound | Km [1] | vmax compared to C4-ACP [1] | Concentration required to suppress color development completely [2] | Inhibition of signaling (blue color development) [2] | Bacterial growth [3] |
| --- | --- | --- | --- | --- | --- |
| CCCC(=O)SCCNC(=O)CCNC(=O)[C@H](O)C(C)(C)COP(=O)(O)OP(=O)(O)OC[C@H]1O[C@@H](n2cnc3c(N)ncnc32)[C@H](O)[C@@H]1OP(=O)(O)O [butanoyl-CoA] | 230 µM | one order of magnitude slower |  |  |  |
| CC(=O)C1CCOC1=O (stereo not drawn) [acetyl-butyrolactone] |  |  | ~20 mM | showed an inhibitory effect | not inhibited |
| butanoyl-acyl carrier protein [C4-ACP] | 6 µM |  |  |  |  |
| O=C1CCCO1 [butyrolactone] |  |  | ~20 mM | showed an inhibitory effect | not inhibited |
